The text below walks through data of patent US20110189293A1, “THERAPEUTIC REGIMENS FOR THE TREATMENT OF IMMUNOINFLAMMATORY DISORDERS” (CombinatoRx, Incoporated, priority 2007, published 2011).

The nature of test [1]: Equivalent corticosteroid dosing (BNF clinical dosing equivalence). The conditions noted are these: BNF guidelines. Here is the method:
Equivalent potency in clinical dosing is well known.
The BNF guidelines are included in Table 2 below. More specifically, Table 2 provides doses of corticosteroids equivalent to 5 mg of prednisolone and equivalent to 1 mg of prednisolone when administered in a manner according to this invention.

For test [2] the following is noted: cited from earlier work; for Equivalent dose, equal to 5 mg prednisolone: BNF guidelines.

On to `CC(=O)OCC(=O)[C@@]12N=C(C)O[C@@H]1C[C@H]1[C@@H]3CCC4=CC(=O)C=C[C@]4(C)[C@H]3[C@@H](O)C[C@@]12C` [Deflazacort], for which the “Equivalent dose, equal to 1 mg prednisolone” value in test [1] is given as 1.2 mg. Moreover, the “Equivalent dose, equal to 5 mg prednisolone” value in test [2] was 6 mg.
For `C[C@]12CCC(=O)C=C1CC[C@@H]1[C@@H]2[C@@H](O)C[C@@]2(C)[C@H]1CC[C@]2(O)C(=O)CO` [Hydrocortisone], the “Equivalent dose, equal to 1 mg prednisolone” value in test [1] worked out at 4 mg. Besides, the “Equivalent dose, equal to 5 mg prednisolone” value in test [2] is 20 mg.
Take `C[C@]12C=CC(=O)C=C1CC[C@H]1[C@@H]3C[C@@H](O)[C@](O)(C(=O)CO)[C@@]3(C)C[C@H](O)[C@@]12F` [Triamcinolone]: the “Equivalent dose, equal to 1 mg prednisolone” value in test [1] was 0.8 mg. Also, the “Equivalent dose, equal to 5 mg prednisolone” value in test [2] is reported as 4 mg. Also, in test [2] (nasal administration, BNF 37 March 1999), the “broadly similar dose from clinical dosing equivalence” value is 110 µg.
As to `CC(=O)OCC(=O)[C@@]1(O)CC[C@H]2[C@@H]3CCC4=CC(=O)CC[C@]4(C)[C@H]3C(=O)C[C@@]21C` [cortisone acetate], the “Equivalent dose, equal to 1 mg prednisolone” value in test [1] was determined as 5 mg. For the same molecule, the “Equivalent dose, equal to 5 mg prednisolone” value in test [2] is 25 mg.
Regarding methyl prednisone, in test [1], the “Equivalent dose, equal to 1 mg prednisolone” value is listed as 0.8 mg. Moreover, the “Equivalent dose, equal to 5 mg prednisolone” value in test [2] is given as 4 mg.
